Values belong to the substance of their own block, whether it stands above or below them.
Tested on: HLA-A*24
Experiment: MHC binding assay: UV-ligand exchange with beta2m ELISA (peptide exchange yield)
Parameters: species or system human
Settings: Table 11, binding to HLA-A*24, UV-ligand exchange
Summary of the method: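 Peptide-MHC complexes generated by UV-induced exchange of a photocleavable ligand with the test peptide; exchange yield quantified by streptavidin-capture ELISA detecting β2m (HRP anti-β2m, TMB, A450). Samples diluted 100-fold, with refolded HLA-A*02:01/MLA-001 monomers (15-500 ng/ml) as standards.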

Substance: 73 (YFCSTKGQLF; listed as Homo sapiens) [compound 73]
- Peptide exchange (MHC class I binding score, peptide exchange yield): ++++ (>75% = ++++)

Substance: 28 (FWFDSREISF; listed as Homo sapiens) [compound 28]
- Peptide exchange (MHC class I binding score, peptide exchange yield): ++++ (>75% = ++++)

Substance: 34 (LIFALALAAF; listed as Homo sapiens) [compound 34]
- Peptide exchange (MHC class I binding score, peptide exchange yield): + (>10% = +)

Substance: 155 (PYSIYPHGVTF; listed as Homo sapiens) [compound 155]
- Peptide exchange (MHC class I binding score, peptide exchange yield): ++++ (>75% = ++++)

Substance: 123 (FFLQESPVF; listed as Homo sapiens) [compound 123]
- Peptide exchange (MHC class I binding score, peptide exchange yield): ++++ (>75% = ++++)

Substance: 66 (IYKDYYRYNF; listed as Homo sapiens) [compound 66]
- Peptide exchange (MHC class I binding score, peptide exchange yield): ++++ (>75% = ++++)

Substance: 136 (YLKSVQLF; listed as Homo sapiens) [compound 136]
- Peptide exchange (MHC class I binding score, peptide exchange yield): ++ (>20% = ++)

Substance: 267 (QHMLPFWTDL; listed as Homo sapiens) [compound 267]
- Peptide exchange (MHC class I binding score, peptide exchange yield): +++ (>50 = +++)

Substance: 20 (ELMAHPFLL; listed as Homo sapiens) [compound 20]
- Peptide exchange (MHC class I binding score, peptide exchange yield): ++ (>20% = ++)

Substance: 103 (EMFFSPQVF; listed as Homo sapiens) [compound 103]
- Peptide exchange (MHC class I binding score, peptide exchange yield): ++ (>20% = ++)

Substance: 232 (IWPGFTTSI; listed as Homo sapiens) [compound 232]
- Peptide exchange (MHC class I binding score, peptide exchange yield): ++++ (>75% = ++++)

Substance: 95 (IGLSVVHRF; listed as Homo sapiens) [compound 95]
- Peptide exchange (MHC class I binding score, peptide exchange yield): ++++ (>75% = ++++)

Substance: 234 (RYKMLIPF; listed as Homo sapiens) [compound 234]
- Peptide exchange (MHC class I binding score, peptide exchange yield): +++ (>50 = +++)

Substance: 332 (VYCSLDKSQF; listed as Homo sapiens) [compound 332]
- Peptide exchange (MHC class I binding score, peptide exchange yield): ++++ (>75% = ++++)

Substance: 124 (EYNVFPRTL; listed as Homo sapiens) [compound 124]
- Peptide exchange (MHC class I binding score, peptide exchange yield): ++ (>20% = ++)

Substance: 359 (TQLPAPLRI; listed as Homo sapiens) [compound 359]
- Peptide exchange (MHC class I binding score, peptide exchange yield): ++ (>20% = ++)

Substance: 192 (CYSFIHLSF; listed as Homo sapiens) [compound 192]
- Peptide exchange (MHC class I binding score, peptide exchange yield): ++++ (>75% = ++++)

Substance: 338 (VYLTWLPGL; listed as Homo sapiens) [compound 338]
- Peptide exchange (MHC class I binding score, peptide exchange yield): ++++ (>75% = ++++)

Substance: 373 (IWDALERTF; listed as Homo sapiens) [compound 373]
- Peptide exchange (MHC class I binding score, peptide exchange yield): ++ (>20% = ++)

Substance: 21 (LYMRFVNTHF; listed as Homo sapiens) [compound 21]
- Peptide exchange (MHC class I binding score, peptide exchange yield): ++ (>20% = ++)

Substance: 149 (TQFFIPYTI; listed as Homo sapiens) [compound 149]
- Peptide exchange (MHC class I binding score, peptide exchange yield): ++ (>20% = ++)

Substance: 156 (IYPHGVTFSP; listed as Homo sapiens) [compound 156]
- Peptide exchange (MHC class I binding score, peptide exchange yield): + (>10% = +)

Substance: 188 (SLPGSFIYVF; listed as Homo sapiens) [compound 188]
- Peptide exchange (MHC class I binding score, peptide exchange yield): ++ (>20% = ++)

Substance: 15 (FMVIAGMPLF; listed as Homo sapiens) [compound 15]
- Peptide exchange (MHC class I binding score, peptide exchange yield): ++ (>20% = ++)

Substance: 111 (IRPDYSFQF; listed as Homo sapiens) [compound 111]
- Peptide exchange (MHC class I binding score, peptide exchange yield): ++ (>20% = ++)

Substance: 252 (RYLIIKYPF; listed as Homo sapiens) [compound 252]
- Peptide exchange (MHC class I binding score, peptide exchange yield): +++ (>50 = +++)

Substance: 249 (HQYGGAYNRV; listed as Homo sapiens) [compound 249]
- Peptide exchange (MHC class I binding score, peptide exchange yield): ++ (>20% = ++)

Substance: 229 (CAMPVAMEF; listed as Homo sapiens) [compound 229]
- Peptide exchange (MHC class I binding score, peptide exchange yield): ++ (>20% = ++)

Substance: 281 (MDQNQVVWTF; listed as Homo sapiens) [compound 281]
- Peptide exchange (MHC class I binding score, peptide exchange yield): +++ (>50 = +++)

Substance: 366 (RLGEFVLLF; listed as Homo sapiens) [compound 366]
- Peptide exchange (MHC class I binding score, peptide exchange yield): +++ (>50 = +++)

Substance: 226 (TYSTNRTMI; listed as Homo sapiens) [compound 226]
- Peptide exchange (MHC class I binding score, peptide exchange yield): ++++ (>75% = ++++)

The next lines start with the values.

- Peptide exchange (MHC class I binding score, peptide exchange yield): ++ (>20% = ++)
Substance: 387 (THAGVRLYF; listed as Homo sapiens) [compound 387]

- Peptide exchange (MHC class I binding score, peptide exchange yield): ++ (>20% = ++)
Substance: 30 (RQAYSVYAF; listed as Homo sapiens) [compound 30]

- Peptide exchange (MHC class I binding score, peptide exchange yield): +++ (>50 = +++)
Substance: 13 (KYYIATMAL; listed as Homo sapiens) [compound 13]

- Peptide exchange (MHC class I binding score, peptide exchange yield): +++ (>50 = +++)
Substance: 54 (SYQEAIQQL; listed as Homo sapiens) [compound 54]

- Peptide exchange (MHC class I binding score, peptide exchange yield): + (>10% = +)
Substance: 212 (VYFVQYKIM; listed as Homo sapiens) [compound 212]

- Peptide exchange (MHC class I binding score, peptide exchange yield): +++ (>50 = +++)
Substance: 117 (RSMEHPGKLLF; listed as Homo sapiens) [compound 117]

- Peptide exchange (MHC class I binding score, peptide exchange yield): ++ (>20% = ++)
Substance: 265 (LYQQSDTWSL; listed as Homo sapiens) [compound 265]

- Peptide exchange (MHC class I binding score, peptide exchange yield): ++++ (>75% = ++++)
Substance: 326 (VHMKDFFYF; listed as Homo sapiens) [compound 326]

- Peptide exchange (MHC class I binding score, peptide exchange yield): ++ (>20% = ++)
Substance: 121 (RRYFGEKVAL; listed as Homo sapiens) [compound 121]

- Peptide exchange (MHC class I binding score, peptide exchange yield): ++++ (>75% = ++++)
Substance: 385 (GYFGNPQKF; listed as Homo sapiens) [compound 385]

- Peptide exchange (MHC class I binding score, peptide exchange yield): +++ (>50 = +++)
Substance: 236 (LHLYCLNTF; listed as Homo sapiens) [compound 236]

- Peptide exchange (MHC class I binding score, peptide exchange yield): ++ (>20% = ++)
Substance: 361 (KQPANFIVL; listed as Homo sapiens) [compound 361]

- Peptide exchange (MHC class I binding score, peptide exchange yield): ++ (>20% = ++)
Substance: 159 (VFQPNPLF; listed as Homo sapiens) [compound 159]

- Peptide exchange (MHC class I binding score, peptide exchange yield): ++++ (>75% = ++++)
Substance: 379 (KLPTEWNVL; listed as Homo sapiens) [compound 379]

- Peptide exchange (MHC class I binding score, peptide exchange yield): ++++ (>75% = ++++)
Substance: 378 (VYAVISNIL; listed as Homo sapiens) [compound 378]

- Peptide exchange (MHC class I binding score, peptide exchange yield): ++ (>20% = ++)
Substance: 11 (RAMCAMMSF; listed as Homo sapiens) [compound 11]

- Peptide exchange (MHC class I binding score, peptide exchange yield): ++++ (>75% = ++++)
Substance: 295 (KYNRQSMTL; listed as Homo sapiens) [compound 295]

- Peptide exchange (MHC class I binding score, peptide exchange yield): + (>10% = +)
Substance: 340 (FPPTPPLF; listed as Homo sapiens) [compound 340]

- Peptide exchange (MHC class I binding score, peptide exchange yield): +++ (>50 = +++)
Substance: 16 (GYFLAQYLM; listed as Homo sapiens) [compound 16]

- Peptide exchange (MHC class I binding score, peptide exchange yield): ++++ (>75% = ++++)
Substance: 315 (VYDYIPLLL; listed as Homo sapiens) [compound 315]

- Peptide exchange (MHC class I binding score, peptide exchange yield): ++++ (>75% = ++++)
Substance: 306 (RYILEPFFI; listed as Homo sapiens) [compound 306]

- Peptide exchange (MHC class I binding score, peptide exchange yield): ++ (>20% = ++)
Substance: 238 (YTCSRAVSLF; listed as Homo sapiens) [compound 238]

- Peptide exchange (MHC class I binding score, peptide exchange yield): +++ (>50 = +++)
Substance: 150 (FIPVAWLIF; listed as Homo sapiens) [compound 150]

- Peptide exchange (MHC class I binding score, peptide exchange yield): +++ (>50 = +++)
Substance: 377 (SLWREVVTF; listed as Homo sapiens) [compound 377]

- Peptide exchange (MHC class I binding score, peptide exchange yield): ++++ (>75% = ++++)
Substance: 330 (DYIQMIPEL; listed as Homo sapiens) [compound 330]

- Peptide exchange (MHC class I binding score, peptide exchange yield): ++++ (>75% = ++++)
Substance: 17 (IYPEAIATL; listed as Homo sapiens) [compound 17]

- Peptide exchange (MHC class I binding score, peptide exchange yield): ++++ (>75% = ++++)
Substance: 355 (VYNNNSSRF; listed as Homo sapiens) [compound 355]

- Peptide exchange (MHC class I binding score, peptide exchange yield): ++ (>20% = ++)
Substance: 12 (KYMSRVLFVY; listed as Homo sapiens) [compound 12]

- Peptide exchange (MHC class I binding score, peptide exchange yield): ++++ (>75% = ++++)
Substance: 246 (KIYTTVLFANI; listed as Homo sapiens) [compound 246]

- Peptide exchange (MHC class I binding score, peptide exchange yield): ++++ (>75% = ++++)
Substance: 369 (NFYLFPTTF; listed as Homo sapiens) [compound 369]

- Peptide exchange (MHC class I binding score, peptide exchange yield): +++ (>50 = +++)
Substance: 299 (FLPALYSLL; listed as Homo sapiens) [compound 299]

- Peptide exchange (MHC class I binding score, peptide exchange yield): ++++ (>75% = ++++)
Substance: 29 (IYLLLPPVI; listed as Homo sapiens) [compound 29]

— US12060400B2, “Peptides for use in immunotherapy against cancers” (Immatics Biotechnologies GmbH, priority 2018, dated 2024)
